In ChEMBL document CHEMBL1136247, “Alpha-keto amides as inhibitors of histone deacetylase” (Bioorg Med Chem Lett, 2003) one finds IC50 data, which are given here for 30 compounds.

In one assay the test system is HT-1080. In words: Compound was tested for inhibition of proliferation of HT1080 cells. The class given is functional, cell-based. The note with it: Homo sapiens.
Assay [1] concerns the target Histone deacetylase (HDAC1 and HDAC2) (Homo sapiens, UniProt Q13547+Q92769). In words: Inhibitory activity against mixture of histone deacetylase 1 (HDAC1) and histone deacetylase 2 (HDAC2) from nuclear extraction of K562 erythroleukemia cells.
The next assay concerns MDA-MB-435. The experiment in a line: Compound was tested for inhibition of proliferation of MDA-435 cells. The note with it: Homo sapiens. The format is functional, cell-based.

As to `CNC(=O)C(=O)CCCCCCC(=O)Nc1nc(-c2ccc3c(c2)CCCC3)cs1`, the IC50 in the assay on HT-1080 is greater than 50000 nM; in assay [1], 1.4 nM; in the assay on MDA-MB-435, greater than 50000 nM.
For `CNC(=O)C(=O)CCCCCO/N=C\c1ccc(-c2ccccc2)cc1`, in assay [1], the IC50 was determined as 853 nM.
Take `CNC(=O)C(=O)CCCCCCC(=O)Nc1ccc2ccccc2c1`: the IC50 with HT-1080 worked out at 17000 nM; in assay [1], 9.4 nM; in the assay on MDA-MB-435, 22000 nM.
Turning to `CNC(=O)C(=O)CCCCCCSc1ccc(-c2ccccc2)cc1`, in assay [1], the IC50 is recorded as 526 nM.
The same measure, in the same setting: as for `CNC(=O)C(=O)CCCCCCC(=O)Nc1ccc(-c2ccccc2)cc1`, the figure is 201 nM; as for `O=C(O)CNC(=O)C(=O)CCCCCCOc1ccc(-c2ccccc2)cc1`, greater than 50 nM; as for `CNC(=O)C(=O)CCCCCCC(=O)Nc1ccccc1`, 338 nM.
The same measure, in the same setting: the same measure for `CNC(=O)C(=O)C#CCCCCOc1ccc(-c2ccccc2)cc1`: greater than 1000 nM.
On the same count and under the same terms, as for `CNC(=O)C(=O)CCCCCCNS(=O)(=O)c1ccc(-c2ccccc2)cc1`, the figure is 241 nM; as for `CNC(=O)C(=O)CCCCCCS(=O)(=O)c1ccc(-c2ccccc2)cc1`, 143 nM.
`COC(=O)C(=O)CCCCCCOc1ccc(-c2ccccc2)cc1`: in assay [1], the concentration for half-maximal inhibition (IC50) stood at 0.062 nM.
On the same count and under the same terms, the same measure for `CNC(=O)C(=O)CCCCCCNC(=O)c1cccc(-c2ccccc2)c1`: 21 nM.
Turning to `CNC(=O)C(=O)CCCCCCC(=O)Nc1nc2ccccc2s1`, the IC50 worked out at 13000 nM in the assay on HT-1080, 133 nM in assay [1] and 14000 nM in the assay on MDA-MB-435.
As to `O=C(O)C(=O)CCCCCCOc1ccc(-c2ccccc2)cc1`, in assay [1], the concentration for half-maximal inhibition (IC50) was 3.7 nM.
Same read-out and setting: as for `COC(=O)C(=O)CCCCCOc1ccc(-c2ccccc2)cc1`, the figure is 0.082 nM.
`CNC(=O)C(=O)CCCCCCC(=O)Nc1cccc(Oc2ccccc2)c1`: the IC50 in the assay on HT-1080 was determined as 35000 nM; in assay [1] it was 1041 nM; in the assay on MDA-MB-435, 39000 nM.
Take `CNC(=O)C(=O)CCCCCCC(=O)Nc1cnc2ccccc2c1`: the half-inhibitory concentration (IC50) in the assay with HT-1080 amounted to 2900 nM; in assay [1], 9.5 nM; in the assay on MDA-MB-435, 4000 nM.
On the same counts, the results for `CNC(=O)C(=O)CCCCCCC(=O)Nc1nc(-c2ccc(OC)cc2)cs1` are 2700 nM, 9.1 nM and 5800 nM.
Take `CN(C)CCNC(=O)C(=O)CCCCCCOc1ccc(-c2ccccc2)cc1`: the IC50 in assay [1] is greater than 50 nM.
For the compound `CNC(=O)C(=O)CCCCCCC(=O)Nc1nc(-c2ccncc2)cs1`, the half-inhibitory concentration (IC50) worked out at 670 nM in the assay with HT-1080 and 2000 nM with MDA-MB-435.
Regarding `CNC(=O)C(=O)CCCCCCC(=O)Nc1cccc(-c2ccccc2)c1`, the IC50 in assay [1] is reported as 3.7 nM.
As to `CNC(=O)C(=O)COCCCCOc1ccc(-c2ccccc2)cc1`, in assay [1], the concentration for half-maximal inhibition (IC50) was greater than 10000 nM.
Consider `CNC(=O)C(=O)CCCCCCC(=O)Nc1nc(-c2ccc(CCN(C)C)cc2)cs1`, for which the 50% inhibitory concentration (IC50) is 120 nM in the assay on HT-1080, 3.1 nM in assay [1] and 160 nM in the assay with MDA-MB-435.
For the compound `CNC(=O)C(=O)CCCCCCOc1ccc(-c2ccccc2)cc1`, in assay [1], the IC50 is given as 0.11 nM.
Same read-out and setting: as for `NC(=O)C(=O)CCCCCCOc1ccc(-c2ccccc2)cc1`, the figure is greater than 50 nM.
Still for that read-out and setting: the same measure for `CCNC(=O)C(=O)CCCCCCOc1ccc(-c2ccccc2)cc1`: 4.9 nM.
As for `CN(C)C(=O)C(=O)CCCCCCOc1ccc(-c2ccccc2)cc1`, in assay [1], the 50% inhibitory concentration (IC50) is listed as greater than 5 nM.
`CNC(=O)C(=O)CCCCCCC(=O)Nc1ccc2cc[nH]c2c1`: the IC50 is 3400 nM in the assay on HT-1080, 18 nM in assay [1] and 4500 nM with MDA-MB-435.
As for `COC(=O)C(=O)CCCCCCCOc1ccc(-c2ccccc2)cc1`, in assay [1], the half-maximal inhibitory concentration (IC50) stood at 0.109 nM.
Consider `CNC(=O)C(=O)CCCCCCC(=O)Nc1nc(-c2ccccc2)cs1`, for which the IC50 in the assay on HT-1080 is 1200 nM; in assay [1], 11 nM; with MDA-MB-435 it was 3100 nM.

The term IC50 denotes the midpoint of a concentration-inhibition curve.
